Biological target: T1, DRD2 (Homo sapiens, UniProt P14416)
T1 construct: purchased Promega (in-house HiBiT-GPCR construct library, NanoBRET)
Test: NanoBRET screen HiBiT-DRD2 in HEK293
Format: binding
Protocol: Each tracer candidate was screened across the entire library of HiBiT-GPCR constructs using NanoBRET as the detection modality. As depicted in Figure 4A, the specificity of interactions was evaluated through decrease in BRET due to competitive displacement of a bound tracer by excess parental compound. Each tracer was analyzed for binding to each HiBiT-GPCR fusion in the absence and in the presence of competing parental compound. Briefly, HEK293 cells were transfected with HiBiT-GPCR constructs diluted into promoterless DNA to reduce expression and maximize translocation to the cell surface. Each tracer candidate was then screened at concentrations of 1 μM and 0.1 μM across cells expressing these fusions. Cells were treated for 1.5 h with tracer either alone or in the presence of 20 μM competing parental compound (i.e., control). BRET was measured upon addition of purified LgBiT and subsequent complementation with HiBiT genetically fused to a GPCR. The specificity of interactions was assessed through a decrease in BRET signal due to competitive displacement of the bound tracer. To further gauge the robustness of these interactions, the fold response over the control (i.e., BRETtracer/BRETcontrol) was calculated. We chose a 1.5-fold response, which translates to ≥7-fold signal over noise as the minimal threshold required to score an interaction as positive.
HiBiT-GPCR DNA constructs were diluted in 10 mM Tris pH 8 to a final concentration of 0.01 μg/μL, arrayed in 96-well plates and stored at −20 °C. For transfection, HEK293 cells were suspended in Opti-MEM (without phenol red) supplemented with 2% fetal bovine serum (Seradigm) and 100 units/mL penicillin–streptomycin (Gibco) at a final concentration of 220,000 cells/mL and dispensed into white 96-well plates at 90 μL/well. Subsequent transfections and screens were carried using an Agilent Bravo Automated Liquid Handling Platform. First, the 96-well HiBiT DNA arrays were diluted 25-fold in Opti-MEM (without serum or phenol red) to a final concentration of 0.0004 μg/μL and 20 μL of the diluted DNAs were transferred into new 96-well plates. Next, promoterless carrier DNA (1 μg/μL) was diluted 25-fold (0.04 μg/μL) and then dispensed into the diluted arrays at 20 μL/well. Following brief mixing, Viafect transfection reagent (Promega) diluted 16-fold into Opti-MEM was dispensed into the plates at 40 μL/well. After mixing by pipetting, plates were incubated for 10 min on the pipetting station deck. The DNA-transfection reagent complexes were then added to plates containing cells. To facilitate the screen, 10 μL of DNA-transfection reagent complexes were added in duplicates to the top 4 and bottom 4 rows, resulting in two identical 48-well arrays per plate. Plates with transfected cells were incubated for 18–20 h at 37 °C/5% CO2. A screen of each tracer across the entire library using two different concentrations requires duplicate plates of transfected cells. Depending on the number of tracers being screened, transfections can be scaled up using the same ratios. The next day, for each tracer, four 20× screening solutions in tracer dilution buffer (Promega) were prepared: two duplicates at final concentration of 20 μM and two duplicates at a final concentration of 2 μM. […] The four resulting solutions were diluted 4-fold in Opti-MEM without serum or phenol red to generate 5× solutions (5 µM and 0.5 µM tracer +/− 100 μM competing compound). To screen the library, a BioTek MultiFlo FX liquid dispenser was used to dispense 22.5 µL of tracer solution to the top 4 rows and 22.5 µL tracer + competing compound solution to the 4 bottom rows. Plates were briefly mixed on an orbital shaker and incubated for 1.5 h at room temperature. […] Plates were briefly mixed on an orbital shaker and incubated for 15 min to allow complementation.

T1 sequence (P14416 whole entry): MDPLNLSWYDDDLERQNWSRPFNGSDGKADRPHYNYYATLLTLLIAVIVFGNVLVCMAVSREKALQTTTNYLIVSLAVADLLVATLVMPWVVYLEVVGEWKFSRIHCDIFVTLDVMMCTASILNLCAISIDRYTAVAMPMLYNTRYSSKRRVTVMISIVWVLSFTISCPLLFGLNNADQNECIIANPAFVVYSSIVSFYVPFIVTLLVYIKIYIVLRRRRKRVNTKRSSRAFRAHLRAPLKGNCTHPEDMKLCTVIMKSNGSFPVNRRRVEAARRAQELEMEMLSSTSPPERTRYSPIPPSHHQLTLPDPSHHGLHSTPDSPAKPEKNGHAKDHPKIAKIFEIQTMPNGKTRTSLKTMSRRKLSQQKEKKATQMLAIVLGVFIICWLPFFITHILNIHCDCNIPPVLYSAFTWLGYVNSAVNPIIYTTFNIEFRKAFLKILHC

Structure (SMILES)	NanoBRET Fold Response (DRD2, tracer 0.1μM)	NanoBRET Fold Response (DRD2, tracer 1μM)	further results
O=C(CCc1ccc2n1[B-](F)(F)[N+]1=C(c3ccc[nH]3)C=CC1=C2)NCc1ccc(C(=O)NCCOCCC(=O)N[C@@H]2CC[C@@]3(O)[C@H]4Cc5ccc(O)c6c5[C@@]3(CCN4CC3CC3)[C@H]2O6)cc1 [Naltrexone-3-NB590]	0.98	1.36	
CCCn1c(=O)c2[nH]c(-c3ccc(OCC(=O)NCCNC(=O)CCOCCNC(=O)c4ccc(CNC(=O)CCc5ccc6n5[B-](F)(F)[N+]5=C(c7ccc[nH]7)C=CC5=C6)cc4)cc3)nc2n(CCC)c1=O [XAC-3-NB590]	1.17	1.85	
CC(C)N(CC[C@H](c1ccccc1)c1cc(CCNC(=O)c2ccc(CNC(=O)CCc3ccc4n3[B-](F)(F)[N+]3=C(c5ccc[nH]5)C=CC3=C4)cc2)ccc1O)C(C)C [Tolterodine-BZ-NB590]	1.34	1.78	
N#CN/C(=N\CCNC(=O)c1ccc(N)cc1)NCCCOc1cccc(CN2CCCCC2)c1 [Aminopotentidine (unmodified)]			NanoBRET Fold Response (DRD2, other tracers/Aminopotentidine (unmodified), 0.1μM): 1.53; NanoBRET Fold Response (DRD2, other tracers/Aminopotentidine (unmodified), 1μM): 1.51
COc1ccc2[nH]c(-c3ccc(CNC(=O)CCOCCOCCOCCOCCNC(=O)CCc4ccc5n4[B-](F)(F)[N+]4=C(c6ccc[nH]6)C=CC4=C5)cc3)c(CCNC(C)=O)c2n1 [AzomelatoninICO9-2-NB590]			NanoBRET Fold Response (0.1μM tracer): 1.00; NanoBRET Fold Response (1μM tracer): 1.03
COc1ccccc1N1CCN(CCCCN2C(=O)c3ccc(CNC(=O)CCOCCNC(=O)c4ccc(CNC(=O)CCc5ccc6n5[B-](F)(F)[N+]5=C(c7ccc[nH]7)C=CC5=C6)cc4)cc3C2=O)CC1 [NAN-190-3-NB590]	1.80	1.21	
Cc1nc2n(c(=O)c1CCN1CCC(c3noc4cc(F)ccc34)CC1)CCCC2OC(=O)NCCOCCOCCOCCOCCNC(=O)CCc1ccc2n1[B-](F)(F)[N+]1=C(c3ccc[nH]3)C=CC1=C2 (centres unmarked) [Risperidone-2-NB590]	2.85	2.07	
O=C(CCOCCOCCOCCOCCNC(=O)CCc1ccc2n1[B-](F)(F)[N+]1=C(c3ccc[nH]3)C=CC1=C2)NCCCN1CCN(C2=Nc3ccccc3Oc3ccc(Cl)cc32)CC1 [Loxapine-a-2-NB590]	1.97	1.62	
COc1ccccc1N1CCN(CCCCN2C(=O)c3ccc(CNC(=O)CCOCCOCCOCCOCCNC(=O)CCc4ccc5n4[B-](F)(F)[N+]4=C(c6ccc[nH]6)C=CC4=C5)cc3C2=O)CC1 [NAN-190-2-NB590]	2.31	1.36	
CC(C)N(CC[C@H](c1ccccc1)c1cc(CCNC(=O)CCOCCOCCOCCOCCNC(=O)CCc2ccc3n2[B-](F)(F)[N+]2=C(c4ccc[nH]4)C=CC2=C3)ccc1O)C(C)C [Tolterodine-2-NB590]	1.07	1.09	
N#CN=C(NCCCOc1cccc(CN2CCCCC2)c1)NCCNC(=O)CCOCCOCCOCCOCCNC(=O)CCc1ccc2n1[B-](F)(F)[N+]1=C(c3ccc[nH]3)C=CC1=C2 [Aminopotentidine-2-NB590]	1.18	1.22	
CCOC(=O)c1cc(C#N)c(N2CCC(C(=O)NS(=O)(=O)Cc3ccccc3/C=C/C(=O)NCCNC(=O)CCc3ccc4n3[B-](F)(F)[N+]3=C(c5ccc[nH]5)C=CC3=C4)CC2)nc1C [AZD1283-1-NB590]			NanoBRET Fold Response (DRD2, 0.1μM): 1.04; NanoBRET Fold Response (DRD2, 1μM): 1.08
CN(C)CCC=C1c2ccccc2CCc2ccc(C(=O)NCCNC(=O)CCOCCOCCOCCOCCNC(=O)CCc3ccc4n3[B-](F)(F)[N+]3=C(c5ccc[nH]5)C=CC3=C4)cc21 [Amitriptyline-b-2-NB590]			NanoBRET Fold Response (tracer at 0.1μM, listed as amitriptyline-b-2-NB590): 1.54
CN(C)CCC=C1c2ccccc2CCc2ccc(C(=O)NCCNC(=O)CCOCCOCCOCCOCCNC(=O)CCc3ccc4n3[B-](F)(F)[N+]3=C(c5ccc[nH]5)C=CC3=C4)cc21 [Amitriptyline-a-2-NB590]			NanoBRET Fold Response (tracer at 0.1μM): 1.50; NanoBRET Fold Response (tracer at 1μM): 1.97
O=C(CCc1ccc2n1[B-](F)(F)[N+]1=C(c3ccc[nH]3)C=CC1=C2)NCCOCCOCCNC(=O)OCCOCCN1CCN(C2=Nc3ccccc3Sc3ccccc32)CC1 [Quetiapine-a-2-NB590]	1.86	1.76	
Cc1cc2c(s1)Nc1ccccc1N=C2N1CCN(CCCNC(=O)CCOCCOCCOCCOCCNC(=O)CCc2ccc3n2[B-](F)(F)[N+]2=C(c4ccc[nH]4)C=CC2=C3)CC1 [Olanzapine-a-2-NB590]	1.98	2.25	
COc1ccc2c(n1)c(CCNC(C)=O)cn2CCNC(=O)CCc1ccc2n1[B-](F)(F)[N+]1=C(c3ccc[nH]3)C=CC1=C2 [Azamelatonin-1-NB590]			NanoBRET Fold Response (0.1μM tracer): 1.19; NanoBRET Fold Response (1μM tracer): 0.52
CN(CCC=C1c2ccccc2CCc2ccccc21)C(=O)CCOCCOCCOCCOCCNC(=O)CCc1ccc2n1[B-](F)(F)[N+]1=C(c3ccc[nH]3)C=CC1=C2 [Amitriptyline-e-2-NB590]			NanoBRET Fold Response (tracer at 1μM): 1.34
O=C(CCc1ccc2n1[B-](F)(F)[N+]1=C(c3ccc[nH]3)C=CC1=C2)NCc1ccc(C(=O)NCCOCCOCCNCC(O)COc2cccc3ccccc23)cc1 (centres unmarked) [Propranolol-3-NB590]			NanoBRET Fold Response (DRD2, 0.1μM): 1.17; NanoBRET Fold Response (DRD2, 1μM): 1.09
O=C(CCOCCOCCOCCOCCNC(=O)CCc1ccc2n1[B-](F)(F)[N+]1=C(c3ccc[nH]3)C=CC1=C2)NCCCN1CCN(C2=Nc3cc(Cl)ccc3Nc3ccccc32)CC1 [Clozapine-a-2-NB590]			NanoBRET Fold Response (DRD2, 0.1μM tracer): 2.85; NanoBRET Fold Response (DRD2, 1μM tracer): 2.37

Source: paper PMC8151276, “An Integrated Approach toward NanoBRET Tracers for Analysis of GPCR Ligand Engagement” (Molecules, 2021)
